Assay [1] deals with T1, 5HT1B receptor (Cavia porcellus, UniProt O08892).
T1 construct: in-vitro autoradiographies and ex-vivo experiments in Guinea pig; from tissue; host or cells: guinea pig brain (external globus pallidus, ventral pallidum)
In words: ex-vivo experiments with compound I-B. Particulars: Guinea pig. It is filed as in vivo.

The target in assay [2] is T2, 5HT1B receptor (Macaca mulatta, UniProt F6SFA9).
T2 construct: in-vivo PET-experiments in Rhesus monkeys; from tissue; host or cells: brain of living rhesus monkeys (PET)
As to the kind of experiment: in-vivo PET-experiments with compound I-B. Conditions: Rhesus monkeys.

Assay [3] addresses T1, 5HT1B receptor. As to the kind of experiment: in-vitro autoradiographies with compound I-B. In kind it is binding. Conditions: in-vitro autoradiography, Guinea pig.

The structures appear in SMILES notation.

T1 sequence (O08892 whole entry): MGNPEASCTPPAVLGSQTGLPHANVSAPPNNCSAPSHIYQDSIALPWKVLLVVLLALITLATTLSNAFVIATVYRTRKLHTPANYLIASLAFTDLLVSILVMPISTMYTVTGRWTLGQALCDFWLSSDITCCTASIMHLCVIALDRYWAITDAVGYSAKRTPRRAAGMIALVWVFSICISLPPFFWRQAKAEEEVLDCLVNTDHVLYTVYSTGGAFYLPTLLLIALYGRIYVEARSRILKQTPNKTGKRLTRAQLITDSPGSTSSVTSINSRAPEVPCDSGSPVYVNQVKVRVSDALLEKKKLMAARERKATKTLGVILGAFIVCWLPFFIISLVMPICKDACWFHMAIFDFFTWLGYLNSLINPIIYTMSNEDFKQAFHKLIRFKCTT
T2 sequence (F6SFA9 1-390): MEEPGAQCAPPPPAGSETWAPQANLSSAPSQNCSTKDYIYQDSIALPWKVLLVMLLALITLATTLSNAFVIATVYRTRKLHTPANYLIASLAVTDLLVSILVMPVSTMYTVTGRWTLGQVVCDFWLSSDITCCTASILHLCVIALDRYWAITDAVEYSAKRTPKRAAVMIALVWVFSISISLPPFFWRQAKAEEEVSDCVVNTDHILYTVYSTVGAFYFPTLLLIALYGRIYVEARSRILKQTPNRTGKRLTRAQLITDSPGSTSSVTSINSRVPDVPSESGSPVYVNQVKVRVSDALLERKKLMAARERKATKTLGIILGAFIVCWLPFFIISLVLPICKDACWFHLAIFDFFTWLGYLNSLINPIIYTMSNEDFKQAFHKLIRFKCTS

`COC(C)(C)c1ccc(N2CC[C@@H](Cc3ccccc3N3CCN([11CH3])CC3)C2=O)cc1` [compound I-B, R-1-[4-(2-methoxy-isopropyl)-phenyl]-3-[2-(4-[^11C]methyl-piperazin-1-yl)benzyl]-pyrrolidin-2-one]: the “sensitivity of uptake to blocking by other 5HT1B antagonists” value on 5HT1B receptor [1], on 5HT1B receptor [2] and at 5HT1B receptor [3] was “sensitive to blocking by other 5HT1B antagonists in a dose dependent manner” throughout. In addition, the “specific uptake (regional distribution)” value is “specific uptake of compound I-B mainly in the external globus pallidus and ventral pallidum” on 5HT1B receptor [1]; “specific uptake of compound I-B mainly in the external globus pallidus and ventral pallidum” at 5HT1B receptor [2]; “specific uptake of compound I-B mainly in the external globus pallidus and ventral pallidum” at 5HT1B receptor [3].
